In PMC11703096 (PLOS ONE, 2025):

Assays:
[1] = biological target: T1, A32WT (vaccinia virus A32, putative genome packaging ATPase) (Vaccinia virus WR, UniProt P68615, L234K/Q237A); settings: read-out: A32LL234K_Q237A / - / DNA
T1 construct: gene OPG160

[2] = biological target: T2, A32WT (vaccinia virus A32, putative genome packaging ATPase) (Vaccinia virus WR, UniProt P68615, K31A); settings: read-out: A32K31A / - / DNA
T2 construct: gene OPG160

[3] = biological target: the molecule itself; test: native gel or EMSA

Molecule	Km [1]	Km [2]	binding result [3]
Nc1ncnc2c1ncn2[C@@H]1O[C@H](COP(=O)(O)OP(=O)(O)OP(=O)(O)O)[C@@H](O)[C@H]1O [ATP]	0.66 µM	0.2 µM	
vaccinia virus A32 protein with an N-terminal thioredoxin tag and a C-terminal hexahistidine tag (A32WT) (enzyme) MNCFQEKQFSRENLLKMPFRMVLTGGSGSGKTIYLLSLFSTLVKKYKHIFLFTPVYNPDYDGYIWPNHINFVSSQESLEYNLIRTKSNIEKCIAVAQNHKKSAHFLLIFDDVGDKLSKCNTLIEFLNFGRHLNTSIILLCQTYRHVPILGRANITHFCSFNISISDAENMLRSMPVKGKRKDILNMLNMIQTARSNNRLAIIIEDSVFCEGELRICTDTADKDVIEQKLNIDILVNQYSHMKKNLNAILESKKTKLCNSDQSSSSKNVSS			binds
